In patent publication US12044683B2, “Methods and compositions concerning intestinal permeability” (THE REGENTS OF THE UNIVERSITY OF CALIFORNIA, priority 2018, dated 2024):
Several values for one entry are separate records, joined by “and”; a condition that tells them apart may be missing. Equal values may be shown once. Marks after values point to notes of the source that are not given here.

Tests used:
[1] = studies supporting FDA approval for foods, drugs and cosmetics; cited from earlier work
fruit flies = conditions: fruit fly bodies viewed under a microscope after being given the dye; cited from earlier work
[2] = Solubility in resuspension solvents (NMP, water); format: physicochemical; conditions: NMP and water (50% NMP in water used for resuspension)
[3] = Blue #1 measured by LC/MS in blood/plasma after enteral administration (intestinal permeability test); format: in vivo, human; set-up: Blue #1 in blood sample, 2 H / Blue #1 in blood sample, 8 H: unit not given here; conditions: for Blue #1 in blood sample, 2 H: 2 H after dose; for Blue #1 in blood sample, 8 H: 8 H after dose
Experimental: High dose: 0.5 mg/kg—e.g, 35 mg in a 70 kg adult, administered as 35 ml of diluted food coloring solution (16 mg/mL diluted 1:16) was used. Five blood samples were drawn per subject (5 ml/draw): 0 hour-prior to dose, 1 hour, 2 hours, 4 hours, 8 hours. Four subjects enrolled. […]
Test subjects with clinically determined sepsis were given enteral Blue #1 at a designated time prior to scheduled blood draw. […] Sepsis was defined by the Surviving Sepsis Campaign [Crit Care Med. 2013; 41(2):580] (presence, probable or documented, of infection together with systemic manifestations such as fever, tachycardia, leukocytosis, hypotension, organ dysfunction, or decreased tissue perfusion). […] The medium dose was: 0.05 mg/kg—e.g. 3.5 mg in a 70 kg adult, administered as 35 mL of diluted food coloring solution (0.1 mg/mL), The low dose was: 0.005 mg/kg—e.g. 0.35 mg in a 70 kg, administered as 35 ml of diluted food coloring solution (0.01 mg/ml). Five blood draws per subject (5 ml/draw): 0 hour—prior to dose, 1 hour, 2 hours, 4 hours, and 8 hours, through clinically indicated, previously placed IV catheters. 14 subjects were used in this study.
Plasma concentration of Blue-1 is shown in relation to time in two patients (10-26-16) and (11-14-16) diagnosed with sepsis. Plasma preparation was done as shown in Example 5C below. Bzi-Arg_pNA was used as a STD. The data obtained is shown in Tables 2 and 3 below and in FIG. 3. The standard graph is FIG. 4.
Subjects were asked to drink a blue food coloring solution, (GATORADE for example) at 0.5 mg/kg (35 ml for a 70 kg human subject). Then a blood sample was drawn (e.g. 5 ml) at five different time periods for each subject: immediately before the drink (time zero), 1 hour, 2 hour, 4 hour and 8 hours after the drink. Subjects in Group 2 also had some of their abdominal fluid from the paracentesis saved to analyze for the presence of the dye, Plasma was prepared according to the method in the following example.
1) one volume of plasma was mixed with 3 volumes of (1:3→IPA:CAN+0.1% TFA);
2) after spin-down, 1800 μl of supernatant was evaporated (for example, by a Speed-Vac)
4) 10 μl of the re-suspended residue was injected onto a mass spectrophotometer for each analysis which corresponds to 25 μl of “pure plasma”. Quantitative analysis of the peak corresponding to the mass of Blue #1 was performed to see how much of the dye had been absorbed. Bzl-Arg_pNA is an example of a standard that worked with this assay.

[4] = rats; Brown 1980; cited from earlier work
[5] = Non-septic 1, ICU, no vasopressor, MELD 40, Eating
[6] = Non-septic 2, ICU, no vasopressor, MELD 33, Eating
[7] = Non-septic 3, ICU, no vasopressor, MELD 17, Eating
[8] = Non-septic 4, ICU/Pressor, NE 0.4, MELD 36, Eating
[9] = Normal 1, Normal, no vasopressor, MELD 6, NPO
[10] = Normal 2, Normal, no vasopressor, MELD 6, NPO
[11] = Normal 3, Normal, no vasopressor, MELD 6, NPO
[12] = Normal 4, Normal, no vasopressor, MELD 6, NPO
[13] = Septic 1, ICU/Pressor, NE 0.12, MELD 34, NPO × meds
[14] = Septic 3 (first line so labelled, r15), ICU/Pressor, NE 0.12, MELD 39, NPO × meds
[15] = Septic 3 (second line so labelled, r17), ICU/Pressor, Vaso 4, NE 0.09, PhE 25, MELD 35, NPO × meds
[16] = Septic 4, ICU/Pressor, NE 0.25, MELD 40, NPO × meds
[17] = Septic 5, ICU/Pressor, NE 0.02, MELD 23, Eating
[18] = Septic 6, ICU/Pressor, Vaso 2, MELD 43, NPO × meds
[19] = sepsis patient of Table 2, 1 hr after ingestion
[20] = sepsis patient of Table 2, 2 hr after ingestion
[21] = sepsis patient of Table 2, 4 hr after ingestion
[22] = sepsis patient of Table 2, 8 hr after ingestion
[23] = sepsis patient of Table 3, 1 hr after ingestion
[24] = sepsis patient of Table 3, 2 hr after ingestion
[25] = sepsis patient of Table 3, 4 hr after ingestion
[26] = sepsis patient of Table 3, 8 hr after ingestion

CCN(Cc1cccc(S(=O)(=O)[O-])c1)c1ccc(C(=C2C=CC(=[N+](CC)Cc3cccc(S(=O)(=O)[O-])c3)C=C2)c2ccccc2S(=O)(=O)[O-])cc1.[Na+].[Na+] [Blue #1, disodium;2-[[4-[ethyl-[(3-sulfonatophenyl)methyl]amino]phenyl]-[4-[ethyl-[(3-sulfonatophenyl)methyl]azaniumlidene]cyclohexa-2,5-dien-1-ylidene]methyl]benzenesulfonate]
Acceptable daily intake [1]: 12 mg/kg body weight/day
Absorption by fruit flies (fruit flies): not to be absorbed
Solubility [2]: soluble in both
Blue #1 in blood sample, 2 H [3, 5]: 0.5
Blue #1 in blood sample, 8 H [3, 5]: 0.15
Blue #1 in blood sample, 2 H [3, 6]: <0.05
Blue #1 in blood sample, 8 H [3, 6]: <0.05
Blue #1 in blood sample, 2 H [3, 7]: <0.05
Blue #1 in blood sample, 8 H [3, 7]: <0.05
Blue #1 in blood sample, 2 H [3, 8]: <0.05
Blue #1 in blood sample, 8 H [3, 8]: <0.05
Blue #1 in blood sample, 2 H [3, 9]: <0.05
Blue #1 in blood sample, 8 H [3, 9]: <0.05
Blue #1 in blood sample, 2 H [3, 10]: <0.05
Blue #1 in blood sample, 8 H [3, 10]: <0.05
Blue #1 in blood sample, 2 H [3, 11]: <0.05
Blue #1 in blood sample, 8 H [3, 11]: <0.05
Blue #1 in blood sample, 2 H [3, 12]: <0.05
Blue #1 in blood sample, 8 H [3, 12]: <0.05
Blue #1 in blood sample, 2 H [3, 13]: 0.5
Blue #1 in blood sample, 8 H [3, 13]: 0.3
Blue #1 in blood sample, 2 H [3, 14]: 0.7
Blue #1 in blood sample, 8 H [3, 14]: 0.5
Blue #1 in blood sample, 2 H [3, 15]: <0.05
Blue #1 in blood sample, 8 H [3, 15]: <0.05
Blue #1 in blood sample, 2 H [3, 16]: 2.5
Blue #1 in blood sample, 8 H [3, 16]: 4.6**
Blue #1 in blood sample, 2 H [3, 17]: 0.4
Blue #1 in blood sample, 8 H [3, 17]: 0.05
Blue #1 in blood sample, 2 H [3, 18]: 1
Blue #1 in blood sample, 8 H [3, 18]: 1.5
Detectability of Blue #1 by LC/MS (FIG. 2, upper graph) ([3]; non-septic patient): not detectable
Absorption into blood in normal subjects ([3]; normal subjects (four enrolled), high dose 0.5 mg/kg oral, up to 8 hours later): wasn't any detectable absorption
Plasma concentration of Blue-1, Average [3, 19]: 1.41 nM (nM)
Plasma concentration of Blue-1, replicates A, B, C [3, 19]: 1.81 fMoles/μl (nM) and 1.13 fMoles/μl (nM) and 1.29 fMoles/μl (nM)
Plasma concentration of Blue-1, Average [3, 20]: 2.59 nM (nM)
Plasma concentration of Blue-1, replicates A, B, C [3, 20]: 2.17 fMoles/μl (nM) and 2.89 fMoles/μl (nM) and 2.72 fMoles/μl (nM)
Plasma concentration of Blue-1, Average [3, 21]: 2.03 nM (nM)
Plasma concentration of Blue-1, replicates A, B, C [3, 21]: 2.30 fMoles/μl (nM) and 1.75 fMoles/μl (nM) and 2.05 fMoles/μl (nM)
Plasma concentration of Blue-1, Average [3, 22]: 2.18 nM (nM)
Plasma concentration of Blue-1, replicates A, B, C [3, 22]: 2.44 fMoles/μl (nM) and 2.04 fMoles/μl (nM) and 2.05 fMoles/μl (nM)
Plasma concentration of Blue-1, Average [3, 23]: 1.17 nM (nM)
Plasma concentration of Blue-1, replicates A, B, C [3, 23]: 1.09 fMoles/μl (nM) (2×) and 1.33 fMoles/μl (nM)
Plasma concentration of Blue-1, Average [3, 24]: 2.29 nM (nM)
Plasma concentration of Blue-1, replicates A, B, C [3, 24]: 2.40 fMoles/μl (nM) and 2.28 fMoles/μl (nM) and 2.18 fMoles/μl (nM)
Plasma concentration of Blue-1, Average [3, 25]: 2.67 nM (nM)
Plasma concentration of Blue-1, replicates A, B, C [3, 25]: 2.53 fMoles/μl (nM) and 2.29 fMoles/μl (nM) and 3.19 fMoles/μl (nM)
Plasma concentration of Blue-1, Average [3, 26]: 3.37 nM (nM)
Plasma concentration of Blue-1, replicates A, B, C [3, 26]: 3.50 fMoles/μl (nM) and 3.04 fMoles/μl (nM) and 358 fMoles/μl (nM)
Detectability of Blue #1 by LC/MS (FIG. 2, lower graph) ([3]; septic patient): detectable
Share of the dye absorbed into the blood from the intestine [4]: more than 0.02%
